Reference: patent US10329291B2, “C5-C6-carbocyclic fused iminothiadiazine dioxides as BACE inhibitors, compositions, and their use” (Merck Sharp & Dohme Corp., priority 2015, dated 2019)
pKi: −log10 of the molar value.

molecular target: soluble human BACE-1 catalytic domain (Homo sapiens (Human), UniProt P56817); assay: BACE-1 Ki Assay (BACE-1 HTRF FRET Assay); type: biochemical; details: Ki calculated from IC50 using the Cheng-Prusoff equation; QSY7-APPswe-Eu substrate, pH 5.0; read-out: BACE1 Ki
Sequence (P56817 75-416): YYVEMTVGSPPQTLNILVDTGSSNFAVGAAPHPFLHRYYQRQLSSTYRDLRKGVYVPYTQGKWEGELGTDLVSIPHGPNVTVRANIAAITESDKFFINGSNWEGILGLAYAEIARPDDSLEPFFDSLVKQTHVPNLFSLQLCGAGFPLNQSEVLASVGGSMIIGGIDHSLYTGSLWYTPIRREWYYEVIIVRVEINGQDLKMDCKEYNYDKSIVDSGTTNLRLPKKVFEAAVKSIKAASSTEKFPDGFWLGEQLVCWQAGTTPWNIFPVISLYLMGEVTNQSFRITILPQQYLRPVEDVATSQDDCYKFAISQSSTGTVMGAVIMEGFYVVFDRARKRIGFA
Description: The following reagents were used in this assay. Na^+-Acetate pH 5.0; 1% Brij-35; Glycerol; Dimethyl Sulfoxide (DMSO); Recombinant human soluble BACE-1 catalytic domain (>95% pure); APP Swedish mutant peptide substrate (QSY7-APP^swe-Eu): QSY7-[…]-Europium-amide.
A homogeneous time-resolved FRET assay can be used to determine IC50 values for inhibitors of the soluble human BACE-1 catalytic domain. This assay monitors the increase of 620 nm fluorescence that resulted from BACE-1 cleavage of an APPswedish APP^swe mutant peptide FRET substrate (QSY7-[…]-Europium-amide). This substrate contains an N-terminal QSY7 moiety that serves as a quencher of the C-terminal Europium fluorophore (620 nm Em). In the absence of enzyme activity, 620 nm fluorescence is low in the assay and increased linearly over 3 hours in the presence of uninhibited BACE-1 enzyme. Inhibition of BACE-1 cleavage of the QSY7-APP^swe-Eu substrate by inhibitors is manifested as a suppression of 620 nm fluorescence.
Reactions are initiated by addition of 10 μl of 600 nM QSY7-APP^swe-Eu substrate (200 nM final) to give a final reaction volume of 30 μl in a 384 well Nunc HTRF plate. The reactions are incubated at 30° C. for 1.5 hours. […] Inhibitor IC50 values are derived from non-linear regression analysis of concentration response curves. Ki values are then calculated from IC50 values using the Cheng-Prusoff equation using a previously determined […] of 8 μM for the QSY7-APP^swe-Eu substrate at BACE-1. The example compounds of the invention were measured in this assay.

| SMILES | pKi |
| --- | --- |
| CN1C(=N)N[C@@]2(c3cc(NC(=O)c4ccc(F)cn4)ccc3F)CCC[C@H]2S1(=O)=O [Example 1] | 8.00 |
| CN1C(=N)N[C@@]2(c3cc(NC(=O)c4ccc(OC(F)F)cn4)ccc3F)CCC[C@H]2S1(=O)=O [Example 3, 5-(difluoromethoxy)-N-(4-fluoro-3-((4aR,7aR)-3-imino-2-methyl-1,1-dioxidohexahydrocyclopenta[e][1,2,4]thiadiazin-4a(2H)-yl)phenyl)picolinamide] | 8.40 |
| CN1C(=N)N[C@@]2(c3cc(NC(=O)c4ccc(Cl)cn4)ccc3F)CCC[C@H]2S1(=O)=O [Example 4, 5-chloro-N-(4-fluoro-3-((4aR,7aR)-3-imino-2-methyl-1,1-dioxidohexahydrocyclopenta[e][1,2,4]thiadiazin-4a(2H)-yl)phenyl)picolinamide] | 8.52 |
| CN1C(=N)N[C@@]2(c3cc(NC(=O)c4ncc(Cl)cc4F)ccc3F)CCC[C@H]2S1(=O)=O [Example 8, 5-chloro-3-fluoro-N-(4-fluoro-3-((4aR,7aR)-3-imino-2-methyl-1,1-dioxidohexahydrocyclopenta[e][1,2,4]thiadiazin-4a(2H)-yl)phenyl)picolinamide] | 8.40 |
| CN1C(=N)N[C@@]2(c3cc(NC(=O)c4ncc(F)cc4F)ccc3F)CCC[C@H]2S1(=O)=O [Example 9, 3,5-difluoro-N-(4-fluoro-3-((4aR,7aR)-3-imino-2-methyl-1,1-dioxidohexahydrocyclopenta[e][1,2,4]thiadiazin-4a(2H)-yl)phenyl)picolinamide] | 7.66 |
| Cc1cc(F)cnc1C(=O)Nc1ccc(F)c([C@]23CCC[C@H]2S(=O)(=O)N(C)C(=N)N3)c1 [Example 10, 5-fluoro-N-(4-fluoro-3-((4aR,7aR)-3-imino-2-methyl-1,1-dioxidohexahydrocyclopenta[e][1,2,4]thiadiazin-4a(2H)-yl)phenyl)-3-methylpicolinamide] | 8.00 |
| COc1cnc(C(=O)Nc2ccc(F)c([C@]34CCC[C@H]3S(=O)(=O)N(C)C(=N)N4)c2)c(C)n1 [Example 12, N-(4-fluoro-3-((4aR,7aR)-3-imino-2-methyl-1,1-dioxidohexahydrocyclopenta[e][1,2,4]thiadiazin-4a(2H)-yl)phenyl)-5-methoxy-3-methylpyrazine-2-carboxamide] | 7.64 |
| CN1C(=N)N[C@@]2(c3cc(NC(=O)c4cnc(C(F)(F)F)cn4)ccc3F)CCC[C@H]2S1(=O)=O [Example 14, N-(4-fluoro-3-((4aR,7aR)-3-imino-2-methyl-1,1-dioxidohexahydrocyclopenta[e][1,2,4]thiadiazin-4a(2H)-yl)phenyl)-5-(trifluoromethyl)pyrazine-2-carboxamide] | 7.60 |
| COc1ccc(C(=O)Nc2ccc(F)c([C@]34CCC[C@H]3S(=O)(=O)N(C)C(=N)N4)c2)nc1 [Example 15, N-(4-fluoro-3-((4aR,7aR)-3-imino-2-methyl-1,1-dioxidohexahydrocyclopenta[e][1,2,4]thiadiazin-4a(2H)-yl)phenyl)-5-methoxypicolinamide] | 7.80 |
| C#CCOc1ccc(C(=O)Nc2ccc(F)c([C@]34CCC[C@H]3S(=O)(=O)N(C)C(=N)N4)c2)nc1 [Example 18, N-(4-fluoro-3-((4aR,7aR)-3-imino-2-methyl-1,1-dioxidohexahydrocyclopenta[e][1,2,4]thiadiazin-4a(2H)-yl)phenyl)-5-(prop-2-yn-1-yloxy)picolinamide] | 8.52 |
| COc1cnc2c(Nc3ccc(F)c([C@]45CCC[C@H]4S(=O)(=O)N(C)C(=N)N5)c3)nccc2n1 [Example 20, (4aR,7aR)-4a-(2-fluoro-5-(2-methoxypyrido[3,4-b]pyrazin-5-ylamino)phenyl)-3-imino-2-methyloctahydrocyclopenta[e][1,2,4]thiadiazine 1,1-dioxide] | 7.44 |
| COc1cnc2c(Nc3ccc(F)c([C@]45CCC[C@H]4S(=O)(=O)N(C)C(=N)N5)c3)ccnc2c1 [Example 21] | 6.69 |
| CN1C(=N)NC2(c3cc(NC(=O)c4ccc(Cl)cn4)ccc3F)CC2S1(=O)=O (stereo not shown) [Example 32, 5-chloro-N-(4-fluoro-3-(4-imino-3-methyl-2,2-dioxido-2-thia-3,5-diazabicyclo[4.1.0]heptan-6-yl)phenyl)picolinamide] | 5.60 |
| CN1C(=N)NC2(c3cc(NC(=O)C(F)F)ccc3F)CCCC2S1(=O)=O (stereo not shown) [Example 36] | 5.96 |

Results, then the compound that gave them:

| pKi | SMILES |
| --- | --- |
| 7.74 | CN1C(=N)N[C@@]2(c3cc(NC(=O)c4cnc(OCCF)cn4)ccc3F)CCC[C@H]2S1(=O)=O [Example 2, N-(4-fluoro-3-((4aR,7aR)-3-imino-2-methyl-1,1-dioxidohexahydrocyclopenta[e][1,2,4]thiadiazin-4a(2H)-yl)phenyl)-5-(2-fluoroethoxy)pyrazine-2-carboxamide] |
| 8.40 | CN1C(=N)N[C@@]2(c3cc(NC(=O)c4ccc(C#N)cn4)ccc3F)CCC[C@H]2S1(=O)=O [Example 5, 5-cyano-N-(4-fluoro-3-((4aR,7aR)-3-imino-2-methyl-1,1-dioxidohexahydrocyclopenta[e][1,2,4]thiadiazin-4a(2H)-yl)phenyl)picolinamide] |
| 6.90 | Cc1cnc(C(=O)Nc2ccc(F)c([C@]34CCC[C@H]3S(=O)(=O)N(C)C(=N)N4)c2)cn1 [Example 6, N-(4-fluoro-3-((4aR,7aR)-3-imino-2-methyl-1,1-dioxidohexahydrocyclopenta[e][1,2,4]thiadiazin-4a(2H)-yl)phenyl)-5-methylpyrazine-2-carboxamide] |
| 7.38 | Cc1ccc(C(=O)Nc2ccc(F)c([C@]34CCC[C@H]3S(=O)(=O)N(C)C(=N)N4)c2)nc1 [Example 7, N-(4-fluoro-3-((4aR,7aR)-3-imino-2-methyl-1,1-dioxidohexahydrocyclopenta[e][1,2,4]thiadiazin-4a(2H)-yl)phenyl)-5-methylpicolinamide] |
| 7.80 | COc1cnc(C(=O)Nc2ccc(F)c([C@]34CCC[C@H]3S(=O)(=O)N(C)C(=N)N4)c2)c(C)c1 [Example 11, N-(4-fluoro-3-((4aR,7aR)-3-imino-2-methyl-1,1-dioxidohexahydrocyclopenta[e][1,2,4]thiadiazin-4a(2H)-yl)phenyl)-5-methoxy-3-methylpicolinamide] |
| 8.15 | CN1C(=N)N[C@@]2(c3cc(NC(=O)c4cnc(OCC(F)(F)F)cn4)ccc3F)CCC[C@H]2S1(=O)=O [Example 16, N-(4-fluoro-3-((4aR,7aR)-3-imino-2-methyl-1,1-dioxidohexahydrocyclopenta[e][1,2,4]thiadiazin-4a(2H)-yl)phenyl)-5-(2,2,2-trifluoroethoxy)pyrazine-2-carboxamide] |
| 7.96 | COc1cnc(C(=O)Nc2ccc(F)c([C@]34CCC[C@H]3S(=O)(=O)N(C)C(=N)N4)c2)cn1 [Example 17, N-(4-fluoro-3-((4aR,7aR)-3-imino-2-methyl-1,1-dioxidohexahydrocyclopenta[e][1,2,4]thiadiazin-4a(2H)-yl)phenyl)-5-methoxypyrazine-2-carboxamide] |
| 7.51 | COc1cnc2c(Nc3ccc(F)c([C@]45CCC[C@H]4S(=O)(=O)N(C)C(=N)N5)c3)nccc2c1 [Example 19] |
| 7.05 | CN1C(=N)N[C@@]2(c3cc(Oc4ncccc4F)ccc3F)CCC[C@H]2S1(=O)=O [Example 34, (4aR,7aR)-4a-(2-fluoro-5-((3-fluoropyridin-2-yl)oxy)phenyl)-3-imino-2-methyloctahydrocyclopenta[e][1,2,4]thiadiazine 1,1-dioxide] |
| 6.43 | COCC(=O)Nc1ccc(F)c(C23CCCC2S(=O)(=O)N(C)C(=N)N3)c1 (stereo not shown) [Example 35, N-(4-fluoro-3-(3-imino-2-methyl-1,1-dioxidohexahydrocyclopenta[e][1,2,4]thiadiazin-4a(2H)-yl)phenyl)-2-methoxy acetamide] |

same assay, conditions: read-out: BACE-1 Inh. @ 10 μM

| SMILES | inhibition at 10 µM [%] |
| --- | --- |
| CN1C(=N)N[C@@]2(c3cc(Br)ccc3F)CCC[C@H]2S1(=O)=O [Example 33, (4aR,7aR)-4a-(5-bromo-2-fluorophenyl)-3-imino-2-methyloctahydrocyclopenta[e][1,2,4]thiadiazine 1,1-dioxide] | 18 |
| CN1C(=N)NC2(c3ccccc3F)CCCC2S1(=O)=O (stereo not shown) [Example 37, 4a-(2-fluorophenyl)-3-imino-2-methyloctahydrocyclopenta[e][1,2,4]thiadiazine 1,1-dioxide] | 43 |

molecular target: purified human autoBACE-2 (Homo sapiens (Human), UniProt Q9Y5Z0); assay: BACE-2 Assay (BACE-HTRF assay); details: not given
Sequence (Q9Y5Z0 63-473 limits assumed): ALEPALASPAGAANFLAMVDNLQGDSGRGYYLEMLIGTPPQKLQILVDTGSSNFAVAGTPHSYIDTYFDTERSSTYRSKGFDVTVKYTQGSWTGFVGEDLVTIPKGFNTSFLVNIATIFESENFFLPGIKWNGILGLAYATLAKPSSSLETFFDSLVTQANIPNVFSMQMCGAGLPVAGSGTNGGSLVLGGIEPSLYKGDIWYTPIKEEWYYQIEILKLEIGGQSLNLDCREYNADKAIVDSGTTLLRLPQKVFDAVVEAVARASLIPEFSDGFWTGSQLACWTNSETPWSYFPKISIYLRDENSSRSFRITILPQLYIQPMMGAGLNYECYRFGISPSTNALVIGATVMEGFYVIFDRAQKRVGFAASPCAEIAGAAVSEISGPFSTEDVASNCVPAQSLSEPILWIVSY

| pKi | SMILES |
| --- | --- |
| 7.12 | CN1C(=N)N[C@@]2(c3cc(Oc4ncccc4F)ccc3F)CCC[C@H]2S1(=O)=O [Example 34, (4aR,7aR)-4a-(2-fluoro-5-((3-fluoropyridin-2-yl)oxy)phenyl)-3-imino-2-methyloctahydrocyclopenta[e][1,2,4]thiadiazine 1,1-dioxide] |

same assay, conditions: read-out: BACE-2 Inh. @ 10 μM

| inhibition at 10 µM [%] | SMILES |
| --- | --- |
| 18 | CN1C(=N)N[C@@]2(c3cc(Br)ccc3F)CCC[C@H]2S1(=O)=O [Example 33, (4aR,7aR)-4a-(5-bromo-2-fluorophenyl)-3-imino-2-methyloctahydrocyclopenta[e][1,2,4]thiadiazine 1,1-dioxide] |
